{"source": "paper PMC4492822", "about": "(EMBO Molecular Medicine, 2015)", "key": {"H3255 cells": {"test_system": "H3255 cells", "test": "Immunoblotting of MAPK pathway proteins", "format": "cell-based", "conditions": "7.5 μM or 10 μM, 24 h", "protocol": "Cell lysate was prepared with TB buffer method. For immunoblotting, ~25 μg protein was loaded on 10% SDS–PAGE gels. […] The blots were developed with clarity Western ECL (Bio-Rad, Hercules, CA, USA) and imaged with G:BOX Chemi XR5 (Syngene, Frederick, MD, USA)."}, "H1299.EJ cells": {"test_system": "H1299.EJ cells", "test": "Non-homologous end-joining reporter assay", "format": "cell-based", "conditions": "4–6 μM", "protocol": "NHEJ was assessed by the functional reporter system H1299-EJ, provided by E Dikomey. […] When these sites are incised by I-SceI, the artificial start codon is removed creating a DSB. Repair of this DSB by NHEJ restores GFP expression, so that cells capable for NHEJ can be identified by their GFP fluorescence intensity (Kriegs et al, [2010]). H1299.EJ cells were plated in a 6-well plate (1 × 10^5 cell/well) and treated with 4–6 μM RK-33. The following day, cells were transfected (in duplicates) with 1–2 μg of pSceI or pEGFP construct using TransIT-LT1 (Mirus, Madison, WI, USA) in serum-free media (Opti-MEM, Invitrogen, Carlsbad, CA, USA). Media was replaced after 4–6 h with complete media. Subsequently, cells were harvested by trypsinization, washed in PBS, and resuspended in 0.5 ml PBS. NHEJ activity was measured on a FACScan I instrument and analyzed on FlowJo software. Recombination frequency was calculated as ((% pSceI − % negative control) / % pEGFP). H1299-DR-GFP cells, provided by RG Bristow, were used to measure homologous recombination similarly as described above (Chan et al, [2008])."}, "DDX3": {"target": "DDX3 (Homo sapiens, UniProt O00571)", "sequence (O00571 2-582)": "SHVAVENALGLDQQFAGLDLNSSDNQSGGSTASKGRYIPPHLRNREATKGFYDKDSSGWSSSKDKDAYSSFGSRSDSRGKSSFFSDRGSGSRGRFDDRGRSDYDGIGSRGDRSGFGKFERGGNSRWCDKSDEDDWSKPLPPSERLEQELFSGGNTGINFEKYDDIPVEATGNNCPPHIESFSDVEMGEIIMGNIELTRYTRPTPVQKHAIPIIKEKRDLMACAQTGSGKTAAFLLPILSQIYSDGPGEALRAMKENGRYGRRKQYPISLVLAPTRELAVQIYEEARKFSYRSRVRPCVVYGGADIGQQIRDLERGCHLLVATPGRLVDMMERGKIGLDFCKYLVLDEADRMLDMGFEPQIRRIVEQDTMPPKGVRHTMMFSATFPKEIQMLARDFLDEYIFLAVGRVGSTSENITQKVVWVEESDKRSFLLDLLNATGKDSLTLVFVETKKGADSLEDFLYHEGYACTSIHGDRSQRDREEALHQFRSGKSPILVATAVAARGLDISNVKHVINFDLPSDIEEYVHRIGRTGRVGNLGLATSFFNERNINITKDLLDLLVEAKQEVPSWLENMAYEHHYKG", "test": "Biotin bead pull-down assay with biotinylated RK-33 (AK-298, SK-153), immunoblot", "format": "binding", "conditions": "biotinylated RK-33 molecules, 10 μM", "protocol": "(§1) Mean from 3 replicates with SD. • J, K Colony-forming assay of A549 and H3255 cells treated with RK-33 and with various doses of radiation 4 h later. Curves were fitted with a quadratic polynomial equation. Mean from 2 replicates with SD. P-values were determined by the extra sum of squares F-test. Source data are available online for this figure.\n(§2) Two plates of 70% confluent cells were lysed with IP lysis buffer (Tris–HCl (pH 7.4) 25 mM, NaCl 150 mM, EDTA 1 mM, NP-40 1%, glycerol 5%, protease inhibitor). […] Streptavidin beads were added and incubated for 1 h at room temperature. The biotin-bead–RK-33 complex was extracted with a magnetic stand and washed seven times with PBS. Proteins were analyzed by immunoblot."}, "DDX5": {"target": "T1, DDX5 (Homo sapiens, UniProt P17844)", "T1 construct": "Two plates of 70% confluent cells were lysed with IP lysis buffer; endogenous in cells", "T1 sequence (P17844 whole entry)": "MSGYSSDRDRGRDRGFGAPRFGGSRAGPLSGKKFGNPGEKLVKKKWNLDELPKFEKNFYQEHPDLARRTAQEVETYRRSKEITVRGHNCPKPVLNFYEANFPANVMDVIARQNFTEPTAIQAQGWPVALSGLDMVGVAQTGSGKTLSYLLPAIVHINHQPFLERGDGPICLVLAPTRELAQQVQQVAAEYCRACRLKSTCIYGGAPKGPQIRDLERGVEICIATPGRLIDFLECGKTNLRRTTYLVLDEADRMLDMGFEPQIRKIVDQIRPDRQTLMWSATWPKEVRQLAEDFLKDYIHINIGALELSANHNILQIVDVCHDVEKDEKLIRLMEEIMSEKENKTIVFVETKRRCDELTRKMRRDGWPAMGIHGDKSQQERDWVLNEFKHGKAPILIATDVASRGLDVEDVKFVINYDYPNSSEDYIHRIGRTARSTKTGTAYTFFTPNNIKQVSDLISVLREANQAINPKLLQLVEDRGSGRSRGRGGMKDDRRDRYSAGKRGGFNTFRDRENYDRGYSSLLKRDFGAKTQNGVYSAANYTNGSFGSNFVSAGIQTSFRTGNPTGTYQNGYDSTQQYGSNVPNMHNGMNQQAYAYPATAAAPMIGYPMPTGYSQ", "test": "Biotin bead pull-down assay with biotinylated RK-33, immunoblot", "format": "binding", "conditions": "biotinylated RK-33 molecules, 10 μM", "protocol": "as §1, §2"}, "A549 cells": {"test_system": "A549 cells", "test": "53BP1 and γH2AX foci after radiation (immunofluorescence)", "format": "cell-based, human", "conditions": "6 μM, 12 h before 2-Gy radiation", "protocol": "A549 cells were allowed to attach overnight in chamber slides. For DDR experiments (Fig6A), cells were incubated with RK-33 for 12 h and then radiated with 2 Gy. After 0, 1, 6, and 24 h, cells were fixed and stained. Cells were fixed for 15 min in 4% formalin, washed with PBS, permeabilized (PBS containing 0.2% Triton X-100) for 5 min, and blocked for 30 min with 10% goat serum. […] Next, cells were washed with PBS and incubated with secondary antibodies, CY3 (1:200, goat anti-mouse, 115-165-071, Jackson Immuno Research) or Alexa fluor 488 (1:200, goat anti-rabbit, A11034, Invitrogen) for 1 h. Cells were washed, nuclei-stained with 4′,6-diamidino-2-phenylindole (DAPI), and cover-slipped. Photographs were taken with Nikon Eclipse 80i fluorescence microscope using a CoolSnap ES camera (Roper scientific, Sarasota, FL, USA)."}}}
{"substance": "diimidazo[4,5-d:4′,5′-f]-[1,3]diazepine [RK-33]", "values": [{"measurement": "ERK1/2 phosphorylation", "setting": "H3255 cells", "value": "increase of ERK1/2 phosphorylation"}, {"measurement": "reduction of NHEJ", "setting": "H1299.EJ cells", "value": 38, "unit": "%"}, {"measurement": "binding to DDX3 in pull-down", "setting": "DDX3", "value": "binds specifically to DDX3"}, {"measurement": "binding to DDX5 in pull-down", "setting": "DDX5", "value": "not to the closely related proteins DDX5 and DDX17"}, {"measurement": "persistence of radiation-induced DNA damage (53BP1 and γ-H2AX foci)", "setting": "A549 cells", "value": "DNA damage persisted well beyond 24 h"}]}
